We go through 1 molecule from patent US9334272B2, “Derivatives of purinic and pyrimidinic antiviral agents and use thereof as potent anticancer agents” (Ramot at Tel-Aviv University Ltd., priority 2007, dated 2016).

In assay [1] the test system is U-251 cells. Nature of the assay: Hoechst viability assay, U-251 glioma cells. The note with it: 72 hours, Hoechst. In kind it is cell-based, human. Here is the method:
(§1) Cells (in quadruplicate) at the specified density were suspended in 200 μL medium supplemented with 10% FCS seeded in 96-well plates for 24 hours, then exposed to the drugs for 72 hours. The viability of the cells was determined by Hoechst fluorescent assay as described by Nudelman et al., 2005. Leukemic cell viability after 72 hours of treatment was determined by an MTT (3-(4,5-dimethylthiazol-2-yl)-2,5-diphenyltetrazolium bromide) assay as described by Levovich et al., 2007.
(§2) IC50 values were determined by linear regression of the percentage of survival following drug titration.

Assay [2] has as its system U-251 cells. Nature of the assay: Reactive oxygen species by DCF-DA FACS, U-251 cells. Format: cell-based, human. The note with it: 2 hour treatment. Here is the method:
ROS levels were determined by FACS analysis of U-251 cells treated with dichlorodihydrofluorescein diacetate (DCF-DA), which becomes fluorescent when oxidized.

The target of another assay is T1, proteasome (Homo sapiens, UniProt P28074).
T1 construct: proteasome activity in U-251 cells treated for 4 or 24 hours; endogenous in cells; host or cells: U-251 cells (lysates of treated cells)
T1 sequence (P28074 60-263): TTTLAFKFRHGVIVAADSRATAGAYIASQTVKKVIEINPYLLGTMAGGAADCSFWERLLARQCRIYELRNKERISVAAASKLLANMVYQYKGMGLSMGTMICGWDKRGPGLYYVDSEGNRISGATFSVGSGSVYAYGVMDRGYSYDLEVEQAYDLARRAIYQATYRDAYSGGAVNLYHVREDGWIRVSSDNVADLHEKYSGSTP
Nature of the assay: Proteasome activity assay, U-251 cells. In kind it is cell-based. The note with it: 4 or 24 hours, alone or in combination. As for the experimental part:
The peptidase or chymotrypsin-like activity of the proteasome was assayed using N-succinyl-Leu-Leu-Val-Tyr-7-amido-4-methylcoumarin. The lysates (100 μL) were incubated with 13 (M of the substrate in 100 mM Tris, pH 7.5, for 1 hour with shaking at room temperature. The reaction was stopped by addition of ice-cold ethanol, and the samples were centrifuged for 5 minutes at 2500 g. The supernatants were collected and the fluorescence was measured with excitation/emission filters of 390/460 nm using the FluoStar fluorimeter. The protein concentration was determined using a BCATM kit (Pierce) and the proteasome activity was derived from the ratio of fluorescence at 460 nm/(g of protein. The percentage of proteasome activity was calculated relative to untreated cells.

Assay [3] relates to kinases which phosphorylate acyclovir. Kind of assay: Acyclovir phosphorylation (viral thymidine kinase activity) in 4T1 cell extracts. The note with it: 4T1 cells, 24 hours, 40 μM. Format: cell-based, murine. Here is the method: The mammalian thymidine kinase (TK) has a narrow specificity and acts only on thymidine. […] The lysates obtained were kept at −70 ° C. until analyzed either spectroscopically or by RT-PCR. […] The ADP is converted to ATP by pyruvate kinase when it hydrolyzes phosphoenolpyruvate (PEP) to pyruvate. Lactate dehydrogenase then converts pyruvate to lactate and NADH to NAD^+. The decrease in fluorescence emitted by NADH (excitation/emission of 320/460 nm) during 10 cycles, each lasting 1 minute, were monitored using a FluoStar fluorometer. The reaction velocity was determined by the slope of the fluorescence vs. time.

For assay [4], the system named is U-251 cells. Kind of assay: Cell cycle analysis (propidium iodide flow cytometry), U-251 cells. In kind it is cell-based, human. The note with it: 24 hours. Here is the method: Cells (4×10^5) were seeded in 35 mm culture dishes and after 24 hours were starved in medium without serum for an additional 24 hours, and then treated with the drug for an additional 24 hours. The cells were then trypsinized to a single cell suspension in PBS, washed, and resuspended in PBS at a concentration of 10^6 cells/mL. The cells were fixed with 70% ethanol for 30 minutes at 4° C., centrifuged and resuspended in 1 ml PBS containing 0.1% Tween 20 and 0.05% bovine serum albumin (BSA). RNase free of DNase was added, and the cell suspension (10^6 cells) was incubated at […] for 30 minutes. The cell suspension was then chilled on ice to a temperature in the range of 2 to 8° C. Propidium iodide (50 μg/mL) was added to the cell suspension, which was than kept in the dark. Red fluorescence (>630 nm) was analyzed on the flow cytometer.
(A flow cytometer gives signals particle by particle.)

The next assay deals with acetylated histone H4. Kind of assay: Histone H4 acetylation Western blot, U-251 cells. In kind it is cell-based, human. The note with it: 2-4 hours of treatment. Here is the method: For the determination of in vitro histone acetylation, 2.5-3×10^6 cells, seeded in 100 mm culture dishes, were supplemented with RPMI medium containing 10% heat inactivated FCS and were treated with the drugs the following day. At the specified times post-treatment, the cells were removed with a rubber policeman, centrifuged, washed, lysed with lysis buffer (PBS, Nonidet® NP-40 1%, sodium deoxycholate 0.5%, sodium dodecyl sulfate (SDS) 0.1%, 1 mM phenylmethylsulfonyl fluoride (PMSF), 1 mM sodium orthovanadate, and 1 μM each of leupeptin and pepstatin) and centrifuged at 10,000 g for 10 minutes at 4° C. […] The extract was then lyophilized, and protein concentration was determined with a BCA kit (Pierce, USA). […] The fold increase of acetylated histones was determined by the ratio of band intensities of treated and untreated cells or mice, normalized to loading control (total histone H3).
Cell lysates or acid extracted histones were solubilized in a concentrated (×4) loading buffer (62.5 mM Tris-HCl, pH 6.8, 1% SDS, 10% glycerol v/v, 1% dithiothreitol (DTT) and 0.1 mg/ml bromophenol blue). […] The membrane was exposed for 5 minutes to Chemiluminescence BioMax light film (Kodak, USA) and the intensity of the bands was measured with a VersaDoc instrument with a Quantityl program (Bio-Rad, USA). […]

In assay [5] the test system is U-251 cells. Kind of assay: Apoptosis/cell death by annexin V-FITC and propidium iodide FACS, U-251 cells. In kind it is cell-based. The note with it: Homo sapiens; U-251 glioblastoma cells, 50 μM, 24 hours (untreated 9%).
Description: Cells were seeded in six-well plates (10^5 cells/well) for 24 hours and were then treated as specified, trypsinized, washed with PBS, double-stained with annexin V-FITC (fluorescein isothiocyanate) and propidium iodide, according to the manufacturer's instructions and subjected to flow cytometry analysis (FACScalibur cytometer, Becton Dickinson).
The test system of assay [6] is U-251 cells. Nature of the assay: Mitochondrial membrane potential (JC-1 staining), U-251 cells. Format: cell-based, human. The note with it: 60 μM, 24 hour treatment.
Another assay concerns herpes virus. The note with it: Brigden & Whiteman, 1983; cited from earlier work.
In a further assay the test system is 22RV1 cells. Nature of the assay: Hoechst viability assay, 22RV1 prostate carcinoma cells. In kind it is cell-based, human. The note with it: 72 hours, Hoechst. As for the experimental part:
as §1, §2

As a reminder, the mortality is the share of the test organisms that died. Low readings indicate more survivors, high ones fewer survivors. With `Nc1nc2c(ncn2COCCO)c(=O)[nH]1` [acyclovir, reference compound], the IC50 result in the assay with U-251 cells [1] is recorded as “could not be reached”. Further, the “level of oxidation in cells (ROS)” value in the assay with U-251 cells [2] is “little if any effect”. Moreover, on proteasome, the “inhibitory effect on proteasome activity” value is given as “only a marginal inhibitory effect”. Further, the “rate of acyclovir phosphorylation (kinase activity)” value in assay [3] is listed as “no effect on the kinase activity”. For the same molecule, in the assay on U-251 cells [4] (1 mM), the “phase of cell-cycle arrest” value was “S phase”. For the same molecule, in the assay on U-251 cells [4] (1000 μM), the “Percentage of cells in G0-G1 stage” value turned out to be 14.1%, the “Percentage of cells in G2-M stage” value is reported as 12.2% and the “Percentage of cells in S stage” value was 73.6%. For the same molecule, the “acetylation of histone H4” value in the assay on acetylated histone H4 is “did not”. The mortality at 50 µM in the assay on U-251 cells [5] was 11%. Besides, in the assay on U-251 cells [6], the mitochondrial membrane potential entry is given as “no apparent effect”. For the same molecule, the “inhibition of herpes virus replication at concentrations lower than those inhibiting mammalian cellular functions” value in the assay on herpes virus is reported as 300-3000 fold. Also, the IC50 entry in the assay with 22RV1 cells is “could not be reached”.
